{"source": "patent US9714247B2", "about": "“Multiple kinase pathway inhibitors” (Mannkind Corporation, priority 2012, dated 2017)", "key": {"[1]": {"test_system": "Ramos", "test": "CellTiter-Glo proliferation/viability assay", "format": "cell-based, human", "conditions": "Homo sapiens, Ramos, read-out: Ramos EC50"}, "[2]": {"target": "BTK (Homo sapiens (Human), UniProt Q06187)", "conditions": "read-out: BTK IC50"}, "[3]": {"target": "ASK1(h) (Homo sapiens (Human), UniProt Q99683)", "test": "IC50 profiler radiometric kinase assay (Millipore)", "format": "biochemical", "conditions": "STE", "description": "(§1) In order to determine the relative enzyme selectivity of these amino naphthyridinones, representative amino naphthyridinones were evaluated for their ability to inhibit various kinases. Kinases were selected for a broad representation of the kinome (see FIG. 2: Kinases Evaluated). Compounds were evaluated using the IC50 profiler assay (Millipore), which measures substrate phosphorylation via γ-^33P-ATP transfer by the kinase of interest.\n(§2) The assay directly measures the catalytic incorporation of phosphate onto kinase substrates. The kinase protein is incubated in buffer with substrate and γ-^33P-ATP. The reaction is initiated by the addition of the Mg-ATP mix. At the end of the reaction incubation time, the reaction is stopped by the addition of phosphoric acid solution and 10 μL of the reaction is spotted onto a filtermat, washed, dried and counted in scintillation fluid. […] In particular the amino naphthyridinones inhibited Abl and some but not all tested members of the Tec and Src families of tyrosine kinases, but not tyrosine-like kinases or the non-tyrosine kinases tested (See FIG. 2: Compound 1). […] Other known drugs with activity against BTK and SFKs, such as dasatinib and bosutinib, have activity against a broader array of tyrosine kinases as well as inhibiting non-tyrosine kinases (See FIG. 2: Dasatinib)."}, "[4]": {"target": "Lyn(h) (Homo sapiens (Human), UniProt P07948)", "sequence (P07948 whole entry)": "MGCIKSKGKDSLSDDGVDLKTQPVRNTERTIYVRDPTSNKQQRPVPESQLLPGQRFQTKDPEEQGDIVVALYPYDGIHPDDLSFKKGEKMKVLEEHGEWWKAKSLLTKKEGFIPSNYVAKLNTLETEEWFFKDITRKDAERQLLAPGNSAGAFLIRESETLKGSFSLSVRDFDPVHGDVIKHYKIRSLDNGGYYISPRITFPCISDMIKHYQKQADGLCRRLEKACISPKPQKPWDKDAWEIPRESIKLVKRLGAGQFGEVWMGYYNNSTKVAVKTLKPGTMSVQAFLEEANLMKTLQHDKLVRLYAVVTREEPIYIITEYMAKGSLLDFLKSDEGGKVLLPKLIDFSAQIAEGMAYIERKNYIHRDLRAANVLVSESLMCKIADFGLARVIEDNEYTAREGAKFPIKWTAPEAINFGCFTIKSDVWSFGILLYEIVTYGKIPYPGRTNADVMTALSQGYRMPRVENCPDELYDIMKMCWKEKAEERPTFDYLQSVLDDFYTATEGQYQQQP", "test": "IC50 profiler radiometric kinase assay (Millipore)", "format": "biochemical", "conditions": "TK", "description": "as §1, §2"}, "[5]": {"target": "mTOR(h) (Homo sapiens (Human), UniProt P42345)", "test": "IC50 profiler radiometric kinase assay (Millipore)", "format": "biochemical", "conditions": "Lipid/Atypical", "description": "as §1, §2"}, "[6]": {"target": "PDK1(h) (Homo sapiens (Human), UniProt O15530)", "sequence (O15530 whole entry)": "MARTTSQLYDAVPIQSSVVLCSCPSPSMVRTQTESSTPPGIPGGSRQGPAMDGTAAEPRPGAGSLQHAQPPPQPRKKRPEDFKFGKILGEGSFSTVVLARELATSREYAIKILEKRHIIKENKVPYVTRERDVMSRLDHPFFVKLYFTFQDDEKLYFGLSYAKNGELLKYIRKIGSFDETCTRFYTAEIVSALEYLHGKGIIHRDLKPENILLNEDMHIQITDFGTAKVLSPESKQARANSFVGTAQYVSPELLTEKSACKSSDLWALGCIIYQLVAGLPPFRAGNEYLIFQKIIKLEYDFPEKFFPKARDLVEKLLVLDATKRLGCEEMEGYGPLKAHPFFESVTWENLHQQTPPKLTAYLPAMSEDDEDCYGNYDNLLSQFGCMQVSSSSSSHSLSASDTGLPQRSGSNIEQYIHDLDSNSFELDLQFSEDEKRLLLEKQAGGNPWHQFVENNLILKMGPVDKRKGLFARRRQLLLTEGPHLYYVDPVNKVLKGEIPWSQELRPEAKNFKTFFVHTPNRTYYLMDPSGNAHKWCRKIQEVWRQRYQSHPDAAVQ", "test": "IC50 profiler radiometric kinase assay (Millipore)", "format": "biochemical", "conditions": "AGC", "description": "as §1, §2"}, "[7]": {"target": "MEK1(h) (Homo sapiens (Human), UniProt Q02750)", "sequence (Q02750 whole entry)": "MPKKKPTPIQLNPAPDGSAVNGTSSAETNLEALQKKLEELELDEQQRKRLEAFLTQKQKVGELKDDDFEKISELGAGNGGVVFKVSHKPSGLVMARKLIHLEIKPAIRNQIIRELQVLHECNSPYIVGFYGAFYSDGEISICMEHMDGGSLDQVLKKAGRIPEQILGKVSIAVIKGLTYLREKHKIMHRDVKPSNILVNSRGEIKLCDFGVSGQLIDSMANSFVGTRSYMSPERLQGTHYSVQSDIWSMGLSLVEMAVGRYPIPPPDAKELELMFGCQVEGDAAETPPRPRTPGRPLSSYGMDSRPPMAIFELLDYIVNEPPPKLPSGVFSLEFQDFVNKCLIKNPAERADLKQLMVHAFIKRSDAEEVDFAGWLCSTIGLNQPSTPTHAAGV", "test": "IC50 profiler radiometric kinase assay (Millipore)", "format": "biochemical", "conditions": "STE", "description": "as §1, §2"}, "[8]": {"target": "c-RAF(h) (Homo sapiens (Human), UniProt P04049, Y340D/Y341D)", "test": "IC50 profiler radiometric kinase assay (Millipore)", "format": "biochemical", "conditions": "TKL", "description": "as §1, §2"}, "[9]": {"target": "GSK3α(h) (Homo sapiens (Human), UniProt P49840)", "test": "IC50 profiler radiometric kinase assay (Millipore)", "format": "biochemical", "conditions": "CMGC", "description": "as §1, §2"}, "[10]": {"target": "CDK7/cyclinH/MAT1(h) (Homo sapiens (Human), UniProt P50613)", "sequence (P50613 whole entry)": "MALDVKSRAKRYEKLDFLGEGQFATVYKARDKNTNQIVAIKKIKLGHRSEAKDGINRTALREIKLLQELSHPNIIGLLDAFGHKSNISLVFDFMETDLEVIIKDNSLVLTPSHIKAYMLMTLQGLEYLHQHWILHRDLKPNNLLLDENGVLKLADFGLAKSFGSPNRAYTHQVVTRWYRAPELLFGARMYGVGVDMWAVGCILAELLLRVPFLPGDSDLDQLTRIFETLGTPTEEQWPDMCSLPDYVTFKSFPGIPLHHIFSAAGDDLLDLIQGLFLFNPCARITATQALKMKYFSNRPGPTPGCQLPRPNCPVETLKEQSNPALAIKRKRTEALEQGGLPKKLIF", "sequence (P51946 whole entry partner)": "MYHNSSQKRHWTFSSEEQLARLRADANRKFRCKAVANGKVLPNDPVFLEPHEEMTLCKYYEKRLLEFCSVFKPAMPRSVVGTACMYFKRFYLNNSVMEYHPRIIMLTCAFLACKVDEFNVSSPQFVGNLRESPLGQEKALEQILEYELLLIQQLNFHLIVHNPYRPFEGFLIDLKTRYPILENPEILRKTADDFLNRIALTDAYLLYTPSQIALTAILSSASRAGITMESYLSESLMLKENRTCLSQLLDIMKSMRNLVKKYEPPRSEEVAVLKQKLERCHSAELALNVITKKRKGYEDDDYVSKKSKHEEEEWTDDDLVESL", "sequence (P51948 whole entry partner)": "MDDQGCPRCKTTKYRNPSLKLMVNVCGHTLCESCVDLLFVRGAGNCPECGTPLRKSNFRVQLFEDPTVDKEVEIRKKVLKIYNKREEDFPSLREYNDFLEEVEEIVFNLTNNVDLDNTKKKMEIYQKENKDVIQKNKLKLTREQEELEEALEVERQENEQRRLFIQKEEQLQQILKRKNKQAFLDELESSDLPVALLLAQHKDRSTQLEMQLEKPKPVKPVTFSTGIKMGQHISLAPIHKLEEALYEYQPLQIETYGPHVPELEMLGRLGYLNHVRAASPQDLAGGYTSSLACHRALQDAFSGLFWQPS", "test": "IC50 profiler radiometric kinase assay (Millipore)", "format": "biochemical", "conditions": "CMGC", "description": "as §1, §2"}, "[11]": {"target": "Met(h) (Homo sapiens (Human), UniProt P08581)", "test": "IC50 profiler radiometric kinase assay (Millipore)", "format": "biochemical", "conditions": "TK", "description": "as §1, §2"}, "[12]": {"target": "JAK3(h) (Homo sapiens (Human), UniProt P52333)", "test": "IC50 profiler radiometric kinase assay (Millipore)", "format": "biochemical", "conditions": "TK", "description": "as §1, §2"}, "[13]": {"target": "MAPKAP-K2(h) (Homo sapiens (Human), UniProt P49137)", "sequence (P49137 whole entry)": "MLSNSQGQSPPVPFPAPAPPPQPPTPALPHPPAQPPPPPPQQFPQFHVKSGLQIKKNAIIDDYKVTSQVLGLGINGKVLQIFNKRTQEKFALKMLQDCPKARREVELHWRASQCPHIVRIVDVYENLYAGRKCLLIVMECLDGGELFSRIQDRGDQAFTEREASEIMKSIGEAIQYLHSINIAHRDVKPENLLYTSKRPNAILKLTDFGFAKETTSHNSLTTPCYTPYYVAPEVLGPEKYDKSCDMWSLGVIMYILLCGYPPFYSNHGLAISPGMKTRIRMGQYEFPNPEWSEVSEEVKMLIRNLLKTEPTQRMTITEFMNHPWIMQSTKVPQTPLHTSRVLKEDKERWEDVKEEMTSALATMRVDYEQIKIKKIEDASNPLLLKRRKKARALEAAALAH", "test": "IC50 profiler radiometric kinase assay (Millipore)", "format": "biochemical", "conditions": "CAMK", "description": "as §1, §2"}, "[14]": {"target": "c-Kit(D816V)(h) (Homo sapiens (Human), UniProt P10721, D816V)", "test": "IC50 profiler radiometric kinase assay (Millipore)", "format": "biochemical", "conditions": "TK", "description": "as §1, §2"}, "[15]": {"target": "SAPK2a(h) (Homo sapiens (Human), UniProt Q16539)", "test": "IC50 profiler radiometric kinase assay (Millipore)", "format": "biochemical", "conditions": "CMGC", "description": "as §1, §2"}, "[16]": {"target": "JAK2(h) (Homo sapiens (Human), UniProt O60674)", "test": "IC50 profiler radiometric kinase assay (Millipore)", "format": "biochemical", "conditions": "TK", "description": "as §1, §2"}, "[17]": {"target": "Tie2(h) (Homo sapiens (Human), UniProt Q02763)", "test": "IC50 profiler radiometric kinase assay (Millipore)", "format": "biochemical", "conditions": "TK", "description": "as §1, §2"}, "[18]": {"target": "BTK(h) (Homo sapiens (Human), UniProt Q06187)", "test": "IC50 profiler radiometric kinase assay (Millipore)", "format": "biochemical", "conditions": "TK", "description": "as §1, §2"}, "[19]": {"target": "Src(1-530)(h) (Homo sapiens (Human), UniProt P12931)", "sequence (P12931 whole entry, looked up)": "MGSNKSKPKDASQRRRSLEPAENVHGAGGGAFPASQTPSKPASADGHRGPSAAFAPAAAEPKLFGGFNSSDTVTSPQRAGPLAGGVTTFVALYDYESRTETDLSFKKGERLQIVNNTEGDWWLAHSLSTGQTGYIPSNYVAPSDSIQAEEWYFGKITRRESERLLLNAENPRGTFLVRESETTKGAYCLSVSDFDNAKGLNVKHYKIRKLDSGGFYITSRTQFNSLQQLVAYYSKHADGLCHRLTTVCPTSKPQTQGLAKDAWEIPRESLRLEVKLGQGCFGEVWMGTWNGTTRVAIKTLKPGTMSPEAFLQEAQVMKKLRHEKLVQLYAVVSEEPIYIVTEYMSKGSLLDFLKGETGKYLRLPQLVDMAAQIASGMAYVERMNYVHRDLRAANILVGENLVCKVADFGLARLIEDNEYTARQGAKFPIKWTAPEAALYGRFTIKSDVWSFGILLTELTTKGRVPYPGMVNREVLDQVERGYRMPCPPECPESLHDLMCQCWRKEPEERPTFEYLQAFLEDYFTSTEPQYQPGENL", "test": "IC50 profiler radiometric kinase assay (Millipore)", "format": "biochemical", "conditions": "TK", "description": "as §1, §2"}, "[20]": {"target": "IKKβ(h) (Homo sapiens (Human), UniProt O14920)", "test": "IC50 profiler radiometric kinase assay (Millipore)", "format": "biochemical", "conditions": "MISC", "description": "as §1, §2"}, "[21]": {"target": "Itk(h) (Homo sapiens (Human), UniProt Q08881)", "test": "IC50 profiler radiometric kinase assay (Millipore)", "format": "biochemical", "conditions": "TK", "description": "as §1, §2"}, "[22]": {"target": "cSRC(h) (Homo sapiens (Human), UniProt P12931)", "sequence (P12931 whole entry, looked up)": "as above", "test": "IC50 profiler radiometric kinase assay (Millipore)", "format": "biochemical", "conditions": "TK", "description": "as §1, §2"}, "[23]": {"target": "Hck(h) (Homo sapiens (Human), UniProt P08631)", "test": "IC50 profiler radiometric kinase assay (Millipore)", "format": "biochemical", "conditions": "TK", "description": "as §1, §2"}, "[24]": {"target": "PDGFRα(h) (Homo sapiens (Human), UniProt P16234)", "sequence (P16234 24-1089)": "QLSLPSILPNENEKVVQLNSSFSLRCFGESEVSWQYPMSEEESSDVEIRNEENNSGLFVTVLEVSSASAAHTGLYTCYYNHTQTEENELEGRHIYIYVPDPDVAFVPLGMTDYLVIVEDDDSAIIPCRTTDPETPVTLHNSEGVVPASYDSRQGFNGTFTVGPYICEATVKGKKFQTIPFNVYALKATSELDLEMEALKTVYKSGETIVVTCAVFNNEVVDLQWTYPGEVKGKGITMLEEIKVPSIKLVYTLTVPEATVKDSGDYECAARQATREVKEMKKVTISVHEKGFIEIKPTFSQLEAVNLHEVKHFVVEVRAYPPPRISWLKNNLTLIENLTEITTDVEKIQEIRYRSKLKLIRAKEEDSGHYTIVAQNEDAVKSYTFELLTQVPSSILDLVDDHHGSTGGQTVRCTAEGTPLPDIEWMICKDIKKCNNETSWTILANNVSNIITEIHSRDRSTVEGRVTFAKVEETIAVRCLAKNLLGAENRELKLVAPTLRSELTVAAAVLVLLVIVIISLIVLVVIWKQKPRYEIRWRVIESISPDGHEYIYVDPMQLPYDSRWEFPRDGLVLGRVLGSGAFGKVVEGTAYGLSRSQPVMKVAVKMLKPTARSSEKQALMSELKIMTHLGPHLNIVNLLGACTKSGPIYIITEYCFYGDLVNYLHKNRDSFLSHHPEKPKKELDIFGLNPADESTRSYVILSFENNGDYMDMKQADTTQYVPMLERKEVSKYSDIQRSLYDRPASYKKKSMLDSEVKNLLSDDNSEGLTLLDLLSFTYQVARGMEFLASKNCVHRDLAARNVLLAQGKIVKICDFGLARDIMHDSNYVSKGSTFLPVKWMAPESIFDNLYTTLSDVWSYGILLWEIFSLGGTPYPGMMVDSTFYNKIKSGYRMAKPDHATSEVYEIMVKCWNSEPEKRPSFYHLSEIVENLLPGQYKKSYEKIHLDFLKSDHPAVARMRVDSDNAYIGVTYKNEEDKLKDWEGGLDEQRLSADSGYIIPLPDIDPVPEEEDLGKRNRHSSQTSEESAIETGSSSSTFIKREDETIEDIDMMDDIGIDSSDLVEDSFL", "test": "IC50 profiler radiometric kinase assay (Millipore)", "format": "biochemical", "conditions": "TK", "description": "as §1, §2"}, "[25]": {"target": "TGFBR1(h) (Homo sapiens (Human), UniProt P36897)", "test": "IC50 profiler radiometric kinase assay (Millipore)", "format": "biochemical", "conditions": "TKL", "description": "as §1, §2"}, "[26]": {"target": "GSK3β(h) (Homo sapiens (Human), UniProt P49841)", "test": "IC50 profiler radiometric kinase assay (Millipore)", "format": "biochemical", "conditions": "CMGC", "description": "as §1, §2"}, "[27]": {"target": "PI3 Kinase (p110α/p85α)(h) (Homo sapiens (Human), UniProt P42336)", "test": "IC50 profiler radiometric kinase assay (Millipore)", "format": "biochemical", "conditions": "Lipid/Atypical"}, "[28]": {"target": "CDK9/cyclinT1(h) (Homo sapiens (Human), UniProt P50750)", "test": "IC50 profiler radiometric kinase assay (Millipore)", "format": "biochemical", "conditions": "CMGC"}, "[29]": {"test_system": "Ramos", "test": "Apoptosis by flow cytometry (Annexin V / 7AAD)", "format": "cell-based, human", "conditions": "Table 5, 6 hours"}}, "note": "pEC50, pIC50: −log10 of the molar value. Where two headings read alike, the source gives them in different places."}
{"smiles": "CCn1c(=O)c(-c2ccccc2)cc2cnc(Nc3ncc(CCN(C)C)s3)cc21", "note": "[Compound 2, 7-[5-(2-Dimethylamino-ethyl)-thiazol-2-ylamino]-1-ethyl-3-phenyl-1H-[1,6]naphthyridin-2-one]", "values": [{"measurement": "pEC50", "setting": "[1]; 48 h", "result": "5.00 to 6.00"}, {"measurement": "pIC50", "setting": "[2]", "result": "< 5.30"}, {"measurement": "pIC50", "setting": "[3]", "result": "< 6.00"}, {"measurement": "pIC50", "setting": "[4]", "result": "> 8.00"}, {"measurement": "pIC50", "setting": "[5]", "result": "< 6.00"}, {"measurement": "pIC50", "setting": "[6]", "result": "< 6.00"}, {"measurement": "pIC50", "setting": "[7]", "result": "< 6.00"}, {"measurement": "pIC50", "setting": "[8]", "result": "6.30 to 7.00"}, {"measurement": "pIC50", "setting": "[9]", "result": "< 6.00"}, {"measurement": "pIC50", "setting": "[10]", "result": "< 6.00"}, {"measurement": "pIC50", "setting": "[11]", "result": "< 6.00"}, {"measurement": "pIC50", "setting": "[12]", "result": "< 6.00"}, {"measurement": "pIC50", "setting": "[13]", "result": "< 6.00"}, {"measurement": "pIC50", "setting": "[14]", "result": "< 6.00"}, {"measurement": "pIC50", "setting": "[15]", "result": "< 6.00"}, {"measurement": "pIC50", "setting": "[16]", "result": "< 6.00"}, {"measurement": "pIC50", "setting": "[17]", "result": "< 6.00"}, {"measurement": "pIC50", "setting": "[18]", "result": "6.30 to 7.00"}, {"measurement": "pIC50", "setting": "[19]", "result": "7.00 to 8.00"}, {"measurement": "pIC50", "setting": "[20]", "result": "< 6.00"}, {"measurement": "pIC50", "setting": "[21]", "result": "< 6.00"}, {"measurement": "pIC50", "setting": "[22]", "result": "6.30 to 7.00"}, {"measurement": "pIC50", "setting": "[23]", "result": "6.00 to 6.30"}, {"measurement": "pIC50", "setting": "[24]", "result": "6.00 to 6.30"}, {"measurement": "pIC50", "setting": "[25]", "result": "6.00 to 6.30"}, {"measurement": "pIC50", "setting": "[26]", "result": "< 6.00"}, {"measurement": "pIC50", "setting": "[27]", "result": "< 6.00"}, {"measurement": "pIC50", "setting": "[28]", "result": "< 6.00"}]}
{"smiles": "CCN(CC)CCOc1ccc(Nc2cc3c(cn2)cc(-c2ccccc2)c(=O)n3CC)nc1", "note": "[Compound 1, 7-[5-(2-Diethylamino-ethoxy)-pyridin-2-ylamino]-1-ethyl-3-phenyl-1H-[1, 6]naphthyridin-2-one]", "values": [{"measurement": "pEC50", "setting": "[1]; 48 hrs", "result": "5.00 to 6.00"}, {"measurement": "pIC50", "setting": "[2]", "result": "> 7.00"}, {"measurement": "pIC50", "setting": "[3]", "result": "< 6.00"}, {"measurement": "pIC50", "setting": "[4]", "result": "> 8.00"}, {"measurement": "pIC50", "setting": "[5]", "result": "< 6.00"}, {"measurement": "pIC50", "setting": "[6]", "result": "< 6.00"}, {"measurement": "pIC50", "setting": "[7]", "result": "< 6.00"}, {"measurement": "pIC50", "setting": "[8]", "result": "6.30 to 7.00"}, {"measurement": "pIC50", "setting": "[9]", "result": "< 6.00"}, {"measurement": "pIC50", "setting": "[10]", "result": "< 6.00"}, {"measurement": "pIC50", "setting": "[11]", "result": "< 6.00"}, {"measurement": "pIC50", "setting": "[12]", "result": "< 6.00"}, {"measurement": "pIC50", "setting": "[13]", "result": "< 6.00"}, {"measurement": "pIC50", "setting": "[14]", "result": "6.30 to 7.00"}, {"measurement": "pIC50", "setting": "[15]", "result": "6.00 to 6.30"}, {"measurement": "pIC50", "setting": "[16]", "result": "< 6.00"}, {"measurement": "pIC50", "setting": "[17]", "result": "6.00 to 6.30"}, {"measurement": "pIC50", "setting": "[18]", "result": "7.00 to 8.00"}, {"measurement": "pIC50", "setting": "[19]", "result": "> 8.00"}, {"measurement": "pIC50", "setting": "[20]", "result": "< 6.00"}, {"measurement": "pIC50", "setting": "[21]", "result": "< 6.00"}, {"measurement": "pIC50", "setting": "[22]", "result": "> 8.00"}, {"measurement": "pIC50", "setting": "[23]", "result": "7.00 to 8.00"}, {"measurement": "pIC50", "setting": "[24]", "result": "6.30 to 7.00"}, {"measurement": "pIC50", "setting": "[25]", "result": "6.30 to 7.00"}, {"measurement": "pIC50", "setting": "[26]", "result": "< 6.00"}, {"measurement": "pIC50", "setting": "[27]", "result": "< 6.00"}, {"measurement": "Percent Apoptosis Ramos", "setting": "[29]; 1 uM", "result": 35.71, "unit": "%"}, {"measurement": "Percent Apoptosis Ramos", "setting": "[29]; 2 uM", "result": 38.94, "unit": "%"}, {"measurement": "Percent Apoptosis Ramos", "setting": "[29]; 5 uM", "result": 39.09, "unit": "%"}, {"measurement": "Percent Apoptosis Ramos", "setting": "[29]; 10 uM", "result": 51.63, "unit": "%"}, {"measurement": "pIC50", "setting": "[28]", "result": "< 6.00"}]}
